Patent US8349553B2, “Jasmonate based assays for identifying compounds that selectively inhibit mitochondrial bound hexokinases” (Ramot at Tel Aviv University Ltd., priority 2007, dated 2013)

Experiments:
[1] = tested on: mitochondria-bound hexokinase (mitochondrial fraction from a CT-26 tumor); assay: Hexokinase detachment assay, mitochondrial fraction of CT-26 tumor; assay type: biochemical, murine; settings: CT-26 tumor mitochondrial fraction
Description: (§1) Mitochondrial fraction was prepared by mechanical lysis and differential centrifugation. All stages were performed on ice. Cells or extracted tissues were washed with PBS and disrupted by homogenization in extraction buffer (Sucrose 250 mM, HEPES-NaOH 10 mM, pH 7.2) freshly supplemented with 0.1 mM EDTA and Protease Inhibitors cocktail (Sigma). For each gram of cells or tissue, 4 volumes of extraction buffer were applied. The homogenate volume was doubled with the extraction buffer, and tissue and cell debris as well as nuclei were pelleted by centrifugation of 1,000 g for 10 minutes. The supernatant was further spun at 13,000 g for 10 minutes twice. Endoplasmic reticulum layer was removed. The pellet, designated as the mitochondrial fraction, was suspended in the appropriate buffer, depending on the assay for which the mitochondrial fraction was prepared. Mitochondrial fractions were used immediately or stored at −196° C.
To determine the amount of hexokinase detached from the mitochondrial fraction by different agents, mitochondria were incubated with the agent of interest and pelleted by centrifugation. Activity of hexokinase in the supernatant (i.e., activity of the detached hexokinase) was determined spectrophotometrically at 340 nm. The reaction couples the ADP formation by hexokinase, consuming the ADP for pyruvate formation by pyruvate kinase, and reducing the pyruvate with NADH by lactate dehydrogenase. Briefly, mitochondria were suspended in incubation buffer (HEPES pH 7.4 20 mM, Sucrose 0.25M, Glucose 10 mM, KCl5 mM, MgCl2 10 mM; 0.2 mg/test, 100 μL/test) and incubated as described below. […]
Methyl jasmonate perturbs mitochondria directly in a PTPC-dependent manner (Rotem, 2005). In order to determine whether methyl jasmonate is able to detach hexokinase from mitochondrial fraction isolated from CT-26 tumors, the activity of hexokinase in the supernatant of mitochondrial fraction treated for different time periods was measured. […] The activity of unbound hexokinase was measured and compared to the activity of spontaneously detached hexokinase (control).

[2] = tested on: rabbit immunoglobulin G (Rb IgG); assay: Surface plasmon resonance, irrelevant protein control; assay type: binding; settings: 6 mM and 3 mM
Description: SPR using ProteOn-EP5 (Bio-Rad, Hercules, Calif., USA) system has been applied to study the direct interaction of methyl jasmonate with hexokinase. This system allowed measuring ligand-analyte interactions in a 6×6 format in real time. Purified rat brain HKI and rabbit immunoglobulin G (Rb IgG; ligands) were diluted in 10 mM Na acetate pH 4 and 4.5, respectively, and coupled to a GLM sensor surface activated with 37.5 mg/ml N-Ethyl-N′-(3′ dimethylaminopropyl) carbodiimide hydrochloride and 7.5 mg/ml N-hydroxysuccinimide. HKI and IgG were added to saturate the chip at 100 μg/ml. Remaining reactive groups on the chip were then inactivated with 1 M ethanolamine pH 8.5. […] Methyl jasmonate and jasmonic acid (analytes) were diluted in running buffer (PBS X 1 with 0.005% Tween and 5% DMSO) and injected onto the sensor chip at varying concentrations. All experiments were performed at flow rate of 50 μl/min, at 25° C.

[3] = tested on: mitochondria-bound hexokinase (mitochondrial fraction of Molt-4 cells); assay: Hexokinase detachment assay, mitochondrial fraction of Molt-4 cells; assay type: biochemical, human; settings: Molt-4 mitochondrial fraction; 30 minutes at 37° C.
Description: as §1, with “C. […] Activity of hexokinase in the supernatant (i.e., activity of the detached hexokinase) was determined spectrophotometrically at 340 nm. […] Mitochondrial fractions isolated from different cancer cells, namely Molt-4 cells, BCL-1 leukemic cells and B16 melanoma tumors were incubated for 30 minutes at 37° C., and the activity of unbound hexokinase was measured and compared to the activity of spontaneously (control) detached hexokinase. […]” for “C.”

detachment of hexokinase (activity of unbound hexokinase compared to control), dose dependence ([1]; 30 minutes of incubation): dose-dependent | binding to immobilized Rb IgG (SPR) [2]: binds to hexokinase but not to Rb IgG
SMILES: CC/C=C\CC1C(=O)CCC1CC(=O)OC (stereo not shown) [methyl jasmonate]
detachment of hexokinase (activity of unbound hexokinase compared to spontaneously detached control), time course ([1]; 3 mM, 10, 30 or 60 minutes at 37° C.): detached hexokinase in a time-dependent manner | detachment of hexokinase (activity of unbound hexokinase compared to control) [3]: detached hexokinase from mitochondrial fraction isolated from the three different cancer cells
